In patent EP4631959A2, “NOVEL MINIGASTRIN-DERIVED CHOLECYSTOKININ 2 RECEPTOR BINDING MOLECULES FOR IMAGING AND TARGETED RADIOTHERAPY” (priority 2022, dated 2024):
Like-named read-outs stand apart in the source and are kept apart here. Starred links: 1 amine or outer side, 2 acyl side, 3 side chain; linkers in the order of their positions; H or OH if unused. Non-standard residues stand in square brackets, D forms with d. Residues, ends and D or L forms follow the SMILES beside them. *: point of attachment. DOTA = O=C(O)CN1CCN(CC(=O)O)CCN(CC(=O)*)CCN(CC(=O)O)CC1; PEG12 = NCCOCCOCCOCCOCCOCCOCCOCCOCCOCCOCCOCCOCCC(=O)O; d(γGlu) = O=C(O)[C@@H](CCC(=O)[*:2])N[*:1]; PEG8 = NCCOCCOCCOCCOCCOCCOCCOCCOCCC(=O)O; 1Nal = N[C@@H](Cc1cccc2ccccc12)C(=O)O; NMeNle = CCCC[C@H](NC)C(=O)O; Nle = CCCC[C@H](N)C(=O)O

How the values were obtained:
CCK-2R = molecular target: T1, CCK-2R (Rattus norvegicus, UniProt P30553); assay: Determination of IC50: CCK-2R affinity on AR4-2J cells, competition with [^177Lu]Lu-DOTA-PP-F11N; assay type: binding; conditions: for IC50: AR4-2J cells
T1 construct: The CCK-2R expressing rat pancreatic tumor cells AR4-2J; host or cells: AR4-2J rat pancreatic tumor cells
T1 sequence (P30553 1-452): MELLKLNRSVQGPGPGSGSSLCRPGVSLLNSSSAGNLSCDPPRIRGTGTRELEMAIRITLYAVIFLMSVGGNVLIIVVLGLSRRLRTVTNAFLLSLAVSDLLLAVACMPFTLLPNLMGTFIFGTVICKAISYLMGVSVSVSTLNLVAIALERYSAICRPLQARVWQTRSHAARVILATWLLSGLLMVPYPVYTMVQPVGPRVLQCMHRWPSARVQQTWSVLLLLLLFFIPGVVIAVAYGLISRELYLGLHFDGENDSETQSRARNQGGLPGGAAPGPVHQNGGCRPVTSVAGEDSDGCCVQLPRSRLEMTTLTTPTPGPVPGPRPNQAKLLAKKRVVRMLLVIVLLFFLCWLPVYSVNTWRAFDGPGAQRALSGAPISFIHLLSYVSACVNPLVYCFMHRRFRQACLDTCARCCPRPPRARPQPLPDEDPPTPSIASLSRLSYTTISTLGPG
Method: AR4-2J cells were harvested 24 ± 2 h before the experiment and seeded in 24-well plates (2.0 × 10^5 cells in 1 mL/well). After removal of the nutrient medium (RPMI 1640, 5 mM L-Gln, 5 mL non-essential amino acids (100×), 10% FCS), the cells were washed once with 500 µL PBS. Thereafter, 200 µL nutrient medium (5% BSA, v/v) were added. Next, 25 µL per well of solutions containing either nutrient medium (5% BSA, v/v) as control or the respective compound in increasing concentration (10^-10 - 10^-4 M), were added with subsequent addition of 25 µL [^177Lu]Lu-DOTA-PP-F11N (0.3 pmol/well).
All experiments were performed in triplicate for each concentration. After 3 h incubation at 37 °C, the experiment was terminated by removal of the medium and consecutive rinsing with 300 µL PBS. The media of both steps were combined in one fraction and represent the amount of free radiolabeled reference. Afterwards, the cells were lysed with 300 µL of 1 M NaOH for at least 15 min and united with the 300 µL NaOH of the following washing step. Quantification of bound and free radiolabeled reference was accomplished in a γ-counter. IC50 determination for each conjugate was repeated twice.

[1] = n-Octanol-PBS distribution coefficient (logD7.4); assay type: physicochemical; conditions: pH = 7.4, ^177Lu-labeled
Method: Approximately 1 MBq of the labeled tracer was dissolved in 1 mL of a 1/1 mixture (v/v) of phosphate buffered saline (PBS, pH = 7.4) and n-octanol in an Eppendorf tube (1.5 mL). After vigorous mixing of the suspension for 3 min at rt, the vial was centrifuged at 9,000 rpm for 5 min (Biofuge 15, Heraeus Sepatech, Osterode, Germany) and 200 µL aliquots of both layers were measured in a γ-counter. The experiment was repeated at least five times.

[2] = ^natLu-labeled, read-out: IC50 [nM] (n = 3), ^natLu-labeled
[3] = read-out: IC50 [nM] (n = 3), ^natLu-labeled, ^natLu-labeled

SMILES | IC50 (CCK-2R; [2]) [nM] | logD7.4 (n ≥ 5), ^177Lu-labeled [1] | IC50 (CCK-2R; [3]) [nM] | IC50 (CCK-2R; references ^natLu-labeled, other peptides without chelator, read-out: IC50 [nM] (n = 3)) | IC50 value, fold lower than [^natLu]Lu-DOTA-PP-F11N (CCK-2R; ^natLu-labeled) [fold]
CCCC[C@@H](C(=O)N[C@@H](CC(=O)O)C(=O)N[C@@H](Cc1cccc2ccccc12)C(N)=O)N(C)C(=O)[C@H](Cc1c[nH]c2ccccc12)NC(=O)CCOCCOCCOCCOCCOCCOCCOCCOCCNC(=O)CC[C@@H](NC(=O)CN1CCN(CC(=O)O)CCN(CC(=O)O)CCN(CC(=O)O)CC1)C(=O)O [DOTA-CCK-80, DOTA-γ-glu-(PEG)7-Trp-(N-Me)Nle-Asp-1-Nal-NH2] ({DOTA-d(γGlu)-PEG8}-W[NMeNle]D[1Nal]-NH2) | 7.9 ± 0.2 | −2.51 ± 0.09 |  |  | 
CCCC[C@@H](C(=O)N[C@@H](CC(=O)O)C(=O)N[C@@H](Cc1cccc2ccccc12)C(N)=O)N(C)C(=O)[C@H](Cc1c[nH]c2ccccc12)NC(=O)CCOCCOCCOCCOCCOCCOCCOCCOCCOCCOCCOCCOCCNC(=O)CC[C@@H](NC(=O)CN1CCN(CC(=O)O)CCN(CC(=O)O)CCN(CC(=O)O)CC1)C(=O)O [DOTA-CCK-81, DOTA-γ-glu-(PEG)11-Trp-(N-Me)Nle-Asp-1-Nal-NH2] ({DOTA-d(γGlu)-PEG12}-W[NMeNle]D[1Nal]-NH2) | 6.3 ± 0.7 | −2.47 ± 0.10 |  |  | 
CCCC[C@H](NC(=O)[C@H](Cc1c[nH]c2ccccc12)NC(=O)CNC(=O)[C@H](Cc1ccc(O)cc1)NC(=O)[C@H](C)NC(=O)CC[C@@H](NC(=O)CC[C@@H](NC(=O)CC[C@@H](NC(=O)CC[C@@H](NC(=O)CC[C@@H](NC(=O)CC[C@@H](NC(=O)[C@@H](CNC(=O)c1ccc([Si](F)(C(C)(C)C)C(C)(C)C)cc1)NC(=O)CN1CCN(CC(=O)O)CCN(CC(=O)O)CCN(CC(=O)O)CC1)C(=O)O)C(=O)O)C(=O)O)C(=O)O)C(=O)O)C(=O)O)C(=O)N[C@@H](CC(=O)O)C(=O)N[C@@H](Cc1ccccc1)C(N)=O [DOTA-MG-SiFA-19] | 7.54 ± 0.26 | −2.70 ± 0.09 |  |  | 
CCCC[C@H](NC(=O)[C@H](Cc1c[nH]c2ccccc12)NC(=O)CNC(=O)[C@H](Cc1ccc(O)cc1)NC(=O)[C@H](C)NC(=O)CC[C@@H](NC(=O)CC[C@@H](NC(=O)CC[C@@H](NC(=O)CC[C@@H](NC(=O)CC[C@@H](NC(=O)CC[C@@H](NC(=O)CC[C@@H](NC(=O)CC[C@@H](CO)NC(=O)[C@@H](CNC(=O)c1ccc([Si](F)(C(C)(C)C)C(C)(C)C)cc1)NC(=O)CN1CCN(CC(=O)O)CCN(CC(=O)O)CCN(CC(=O)O)CC1)C(=O)O)C(=O)O)C(=O)O)C(=O)O)C(=O)O)C(=O)O)C(=O)O)C(=O)N[C@@H](CC(=O)O)C(=O)N[C@@H](Cc1ccccc1)C(N)=O [DOTA-MG-SiFA-29, DOTA-dap(SiFA)-Glutamol-(γ-glu)7-F11N] |  | −1.88 ± 0.07 | 6.55 ± 1.23 |  | 
CCCC[C@@H](C(=O)N[C@@H](CC(=O)O)C(=O)N[C@@H](Cc1cccc2ccccc12)C(N)=O)N(C)C(=O)[C@H](Cc1c[nH]c2ccccc12)NC(=O)CNC(=O)[C@H](Cc1ccc(O)cc1)NC(=O)[C@H](C)NC(=O)CC[C@@H](NC(=O)CC[C@@H](NC(=O)CC[C@@H](NC(=O)CC[C@@H](NC(=O)CC[C@@H](NC(=O)CC[C@@H](NC(=O)CC[C@@H](NC(=O)CC[C@@H](NC(=O)[C@@H](CNC(=O)c1ccc([Si](F)(C(C)(C)C)C(C)(C)C)cc1)NC(=O)CN1CCN(CC(=O)O)CCN(CC(=O)O)CCN(CC(=O)O)CC1)C(=O)O)C(=O)O)C(=O)O)C(=O)O)C(=O)O)C(=O)O)C(=O)O)C(=O)O [DOTA-MG-SiFA-40, DOTA-dap(SiFA)-(γ-glu)8-MGS5] |  | −1.83 ± 0.04 | 8.27 ± 0.35 |  | 
CCCC[C@H](NC(=O)[C@H](Cc1c[nH]c2ccccc12)NC(=O)CNC(=O)[C@H](Cc1ccc(O)cc1)NC(=O)[C@H](C)NC(=O)CC[C@@H](NC(=O)CC[C@@H](NC(=O)CC[C@@H](NC(=O)CC[C@@H](NC(=O)CC[C@@H](NC(=O)CC[C@@H](NC(=O)CC[C@@H](NC(=O)CCCNC(=O)[C@@H](CNC(=O)c1ccc([Si](F)(C(C)(C)C)C(C)(C)C)cc1)NC(=O)CN1CCN(CC(=O)O)CCN(CC(=O)O)CCN(CC(=O)O)CC1)C(=O)O)C(=O)O)C(=O)O)C(=O)O)C(=O)O)C(=O)O)C(=O)O)C(=O)N[C@@H](CC(=O)O)C(=O)N[C@@H](Cc1ccccc1)C(N)=O [DOTA-MG-SiFA-44, DOTA(-dap(SiFA)-GABA-(γ-glu)7-F11N] |  | −2.01 ± 0.07 | 3.47 ± 0.27 |  | 
CCCC[C@H](NC(=O)[C@H](Cc1c[nH]c2ccccc12)NC(=O)CNC(=O)[C@H](Cc1ccc(O)cc1)NC(=O)[C@H](C)NC(=O)CC[C@@H](NC(=O)CC[C@@H](NC(=O)CC[C@@H](NC(=O)CC[C@@H](NC(=O)CC[C@@H](NC(=O)CC[C@@H](NC(=O)CCCNC(=O)CCCNC(=O)[C@@H](CNC(=O)c1ccc([Si](F)(C(C)(C)C)C(C)(C)C)cc1)NC(=O)CN1CCN(CC(=O)O)CCN(CC(=O)O)CCN(CC(=O)O)CC1)C(=O)O)C(=O)O)C(=O)O)C(=O)O)C(=O)O)C(=O)O)C(=O)N[C@@H](CC(=O)O)C(=O)N[C@@H](Cc1ccccc1)C(N)=O [DOTA-MG-SiFA-45, DOTA-dap(SiFA)-(GABA)2-(γ-glu)6-F11N] |  | −1.98 ± 0.02 | 3.15 ± 0.12 |  | 
CCCC[C@H](NC(=O)[C@H](Cc1c[nH]c2ccccc12)NC(=O)CNC(=O)[C@H](Cc1ccc(O)cc1)NC(=O)[C@H](C)NC(=O)CC[C@@H](NC(=O)CC[C@@H](NC(=O)CC[C@@H](NC(=O)CC[C@@H](NC(=O)CC[C@@H](NC(=O)CCCNC(=O)CCCNC(=O)CCCNC(=O)[C@@H](CNC(=O)c1ccc([Si](F)(C(C)(C)C)C(C)(C)C)cc1)NC(=O)CN1CCN(CC(=O)O)CCN(CC(=O)O)CCN(CC(=O)O)CC1)C(=O)O)C(=O)O)C(=O)O)C(=O)O)C(=O)O)C(=O)N[C@@H](CC(=O)O)C(=O)N[C@@H](Cc1ccccc1)C(N)=O [DOTA-MG-SiFA-46, DOTA-dap(SiFA)-(GABA)3-(γ-glu)5-F11N] |  | −2.09 ± 0.07 | 5.52 ± 0.25 |  | 
CCCC[C@H](NC(=O)[C@H](Cc1c[nH]c2ccccc12)NC(=O)CNC(=O)[C@H](Cc1ccc(O)cc1)NC(=O)[C@H](C)NC(=O)CC[C@@H](NC(=O)CCCNC(=O)CC[C@@H](NC(=O)CCCNC(=O)CC[C@@H](NC(=O)CCCNC(=O)CC[C@@H](NC(=O)CCCNC(=O)[C@@H](CNC(=O)c1ccc([Si](F)(C(C)(C)C)C(C)(C)C)cc1)NC(=O)CN1CCN(CC(=O)O)CCN(CC(=O)O)CCN(CC(=O)O)CC1)C(=O)O)C(=O)O)C(=O)O)C(=O)O)C(=O)N[C@@H](CC(=O)O)C(=O)N[C@@H](Cc1ccccc1)C(N)=O [DOTA-MG-SiFA-47, DOTA-dap(SiFA)-(GABA-γ-glu)4-F11N] |  | −1.93 ± 0.08 | 6.77 ± 1.01 |  | 
CCCC[C@H](NC(=O)[C@H](Cc1c[nH]c2ccccc12)NC(=O)CNC(=O)[C@H](Cc1ccc(O)cc1)NC(=O)[C@H](C)NC(=O)CC[C@@H](NC(=O)CC[C@@H](NC(=O)CC[C@@H](NC(=O)CC[C@@H](NC(=O)CC[C@@H](NC(=O)CC[C@@H](NC(=O)CN1CCN(CC(=O)O)CCN(CC(=O)O)CCN(CC(=O)O)CC1)C(=O)O)C(=O)O)C(=O)O)C(=O)O)C(=O)O)C(=O)O)C(=O)N[C@@H](CC(=O)O)C(=O)N[C@@H](Cc1ccccc1)C(N)=O [DOTA-PP-γ-F11N, DOTA-γ-glu^1-γ-glu^2-γ-glu^3-γ-glu^4-γ-glu^5-γ-glu^6-Ala^7-Tyr^8-Gly^9-Trp^10-Nle^11-Asp^12-Phe^13-NH2, reference compound] ({DOTA-d(γGlu)-d(γGlu)-d(γGlu)-d(γGlu)-d(γGlu)-d(γGlu)}-AYGW[Nle]DF-NH2) |  | −4.38 ± 0.05 |  | 7.5 ± 0.5 | 1.7
